Values after ≈ are worked out from the molar mass of the structure shown. Read-outs that look alike come from different tables or passages of the source.
Experiments:
[1] = test system: S. pneumoniae AB 29; test: MIC, agar incorporation method; type: cell-based, Streptococcus pneumoniae; conditions: Streptococcus pneumoniae, AB29
[2] = test system: E. faecalis SP 346 (VRE); test: MIC, agar incorporation method; type: cell-based; conditions: Enterococcus faecalis
[3] = test system: S. pneumoniae 1256; test: MIC, agar incorporation method; type: cell-based, Streptococcus pneumoniae; conditions: Streptococcus pneumoniae
[4] = test system: S. pyogenes 20361; test: MIC, agar incorporation method; type: cell-based, Streptococcus pyogenes; conditions: Streptococcus pyogenes
[5] = test system: S pneumoniae 1294.; test: MIC, agar incorporation method; type: cell-based, Streptococcus pneumoniae; conditions: Streptococcus pneumoniae
[6] = test system: S. pneumoniae AB4; test: MIC, agar incorporation method; type: cell-based, Streptococcus pneumoniae; conditions: Streptococcus pneumoniae
[7] = test system: S. aureus (MRSA 33) Cipro R; test: MIC, agar incorporation method; type: cell-based, Staphylococcus aureus; conditions: Staphylococcus aureus
[8] = test system: S. pneumoniae AB 17; test: MIC, agar incorporation method; type: cell-based, Streptococcus pneumoniae; conditions: Streptococcus pneumoniae, AB17
[9] = test system: S. pneumoniae AB-2; test: MIC, agar incorporation method; type: cell-based, Streptococcus pneumoniae; conditions: Streptococcus pneumoniae, AB2
[10] = test system: E. faecalis 21777; test: MIC, agar incorporation method; type: cell-based; conditions: Enterococcus faecalis
[11] = test system: S. pneumoniae AB 30; test: MIC, agar incorporation method; type: cell-based, Streptococcus pneumoniae; conditions: Streptococcus pneumoniae, AB30
[12] = test system: S. pyogenes 19615; test: MIC, agar incorporation method; type: cell-based, Streptococcus pyogenes; conditions: Streptococcus pyogenes
[13] = test system: S. pneumoniae AB 23; test: MIC, agar incorporation method; type: cell-based, Streptococcus pneumoniae; conditions: Streptococcus pneumoniae, AB23
[14] = test system: K. oxytoca 49131; test: MIC, agar incorporation method; type: cell-based; conditions: Klebsiella oxytoca
[15] = test system: S. epidermidis (MRSE) 23760; test: MIC, agar incorporation method; type: cell-based, Staphylococcus epidermidis; conditions: Staphylococcus epidermidis
[16] = test system: S. pneumoniae 1275; test: MIC, agar incorporation method; type: cell-based, Streptococcus pneumoniae; conditions: Streptococcus pneumoniae
[17] = test system: Moraxella cata. M2; test: MIC, agar incorporation method; type: cell-based
[18] = test system: S. epidermidis ATCC 12228; test: MIC, agar incorporation method; type: cell-based, Staphylococcus epidermidis; conditions: Staphylococcus epidermidis, ATCC12228
[19] = test system: H. influenzae 49766; test: MIC against Haemophilus strains; type: cell-based; conditions: Haemophilus influenzae; s. No. 6, H. influenzae 49766; read-out: MIC
[20] = test system: S. pneumoniae AB 10; test: MIC, agar incorporation method; type: cell-based, Streptococcus pneumoniae; conditions: Streptococcus pneumoniae, AB10
[21] = test system: S. pneumoniae AB-3; test: MIC, agar incorporation method; type: cell-based, Streptococcus pneumoniae; conditions: Streptococcus pneumoniae, AB3
[22] = test system: E. faecalis 29212; test: MIC, agar incorporation method; type: cell-based; conditions: Enterococcus faecalis
[23] = test system: S. aureus ATCC 25923; test: MIC, agar incorporation method; type: cell-based, Staphylococcus aureus; conditions: Staphylococcus aureus, ATCC25923
[24] = test system: S. aureus (MRSA) 21299; test: MIC, agar incorporation method; type: cell-based, Staphylococcus aureus; conditions: Staphylococcus aureus
[25] = test system: P. aeruginosa ATCC 27853; test: MIC, agar incorporation method; type: cell-based; conditions: Pseudomonas aeruginosa, ATCC27853
[26] = S. No. 46, S. pneumoniae AB 29, read-out: MIC
[27] = S. No. 20, E. faecalis SP 346 (VRE), read-out: MIC
[28] = S. No. 56, S. pneumoniae 1256, read-out: MIC
[29] = S. No. 53, S. pyogenes 20361, read-out: MIC
[30] = S. No. 55, S pneumoniae 1294., read-out: MIC
[31] = S. No. 33, S. pneumoniae AB4, read-out: MIC
[32] = S. No. 7, S. aureus (MRSA 33) Cipro R, read-out: MIC
[33] = S. No. 40, S. pneumoniae AB 17, read-out: MIC
[34] = S. No. 31, S. pneumoniae AB-2, read-out: MIC
[35] = S. No. 18, E. faecalis 21777, read-out: MIC
[36] = S. No. 47, S. pneumoniae AB 30, read-out: MIC
[37] = S. No. 51, S. pyogenes 19615, read-out: MIC
[38] = S. No. 43, S. pneumoniae AB 23, read-out: MIC
[39] = S. No. 27, K. oxytoca 49131, read-out: MIC
[40] = S. No. 11, S. epidermidis (MRSE) 23760, read-out: MIC
[41] = S. No. 57, S. pneumoniae 1275, read-out: MIC
[42] = S. No. 59, Moraxella cata. M2, read-out: MIC
[43] = S. No. 10, S. epidermidis ATCC 12228, read-out: MIC
[44] = S. No. 35, S. pneumoniae AB 10, read-out: MIC
[45] = S. No. 32, S. pneumoniae AB-3, read-out: MIC
[46] = S. No. 17, E. faecalis 29212, read-out: MIC
[47] = S. No. 1, organism cell empty, read-out: MIC
[48] = S. No. 5, S. aureus (MRSA) 21299, read-out: MIC
[49] = S. No. 28, P. aeruginosa ATCC 27853, read-out: MIC

CC(=O)NC[C@H]1CN(c2ccc(N3CCN(c4ccc(C=O)s4)CC3)c(F)c2)C(=O)O1 [Compound No. 2, (S)—N-[[3-[3-Fluoro-4-[4-(5-formyl-2-thienyl)-1-piperazinyl]phenyl]-2-oxo-5-oxazolidinyl]methyl]acetamide]
MIC [1, 26]: < 0.25 µg/mL | MIC [2, 27]: 0.5 µg/mL (≈ 1.12 µM) | MIC [3, 28]: < 0.25 µg/mL | MIC [4, 29]: 0.5 µg/mL (≈ 1.12 µM) | MIC [5, 30]: 0.5 µg/mL (≈ 1.12 µM) | MIC [6, 31]: 0.5 µg/mL (≈ 1.12 µM) | MIC [7, 32]: 0.5 µg/mL (≈ 1.12 µM) | MIC [8, 33]: 0.5 µg/mL (≈ 1.12 µM) | MIC [9, 34]: < 0.25 µg/mL | MIC [10, 35]: 0.5 µg/mL (≈ 1.12 µM) | MIC [11, 36]: 0.5 µg/mL (≈ 1.12 µM) | MIC [12, 37]: 0.5 µg/mL (≈ 1.12 µM) | MIC [13, 38]: 0.5 µg/mL (≈ 1.12 µM) | MIC [14, 39]: > 16 µg/mL | MIC [15, 40]: < 0.25 µg/mL | MIC [16, 41]: < 0.25 µg/mL | MIC [17, 42]: 0.5 µg/mL (≈ 1.12 µM) | MIC [18, 43]: 0.5 µg/mL (≈ 1.12 µM) | MIC [19]: > 16 µg/mL | MIC [20, 44]: < 0.25 µg/mL | MIC [21, 45]: < 0.25 µg/mL | MIC [22, 46]: < 0.25 µg/mL | MIC [23, 47]: 1 µg/mL (≈ 2.24 µM) | MIC [24, 48]: 0.5 µg/mL (≈ 1.12 µM) | MIC [25, 49]: > 16 µg/mL

CC(=O)NC[C@H]1CN(c2ccc(N3CCN(c4ccc(C=O)o4)CC3)c(F)c2)C(=O)O1 [Compound No. 3, (S)—N-[[3-[3-Fluoro-4-[4-(5-formyl-2-furyl)-1-piperazinyl]phenyl]-2-oxo-5-oxazolidinyl]methyl]acetamide]
MIC [1, 26]: 0.25 µg/mL (≈ 0.581 µM) | MIC [2, 27]: 0.5 µg/mL (≈ 1.16 µM) | MIC [3, 28]: 0.5 µg/mL (≈ 1.16 µM) | MIC [4, 29]: 0.25 µg/mL (≈ 0.581 µM) | MIC [5, 30]: 0.25 µg/mL (≈ 0.581 µM) | MIC [6, 31]: 0.25 µg/mL (≈ 0.581 µM) | MIC [7, 32]: 0.5 µg/mL (≈ 1.16 µM) | MIC [8, 33]: < 0.125 µg/mL | MIC [9, 34]: < 0.125 µg/mL | MIC [10, 35]: 0.5 µg/mL (≈ 1.16 µM) | MIC [11, 36]: 0.25 µg/mL (≈ 0.581 µM) | MIC [12, 37]: 0.25 µg/mL (≈ 0.581 µM) | MIC [13, 38]: 0.25 µg/mL (≈ 0.581 µM) | MIC [14, 39]: > 16 µg/mL | MIC [15, 40]: 0.25 µg/mL (≈ 0.581 µM) | MIC [16, 41]: < 0.125 µg/mL | MIC [17, 42]: 1 µg/mL (≈ 2.32 µM) | MIC [18, 43]: 0.25 µg/mL (≈ 0.581 µM) | MIC [19]: 8 µg/mL (≈ 18.6 µM) | MIC [20, 44]: < 0.125 µg/mL | MIC [21, 45]: 0.25 µg/mL (≈ 0.581 µM) | MIC [22, 46]: 0.5 µg/mL (≈ 1.16 µM) | MIC [23, 47]: 1 µg/mL (≈ 2.32 µM) | MIC [24, 48]: 0.5 µg/mL (≈ 1.16 µM) | MIC [25, 49]: > 16 µg/mL

CC(=O)NC[C@H]1CN(c2ccc(N3CCN(c4ccc([N+](=O)[O-])o4)CC3)c(F)c2)C(=O)O1 [Compound No. 4, (S)—N-[[3-[3-Fluoro-4-[4-(5-nitro-2-furyl)-1-piperazinyl]phenyl]-2-oxo-5-oxazolidinyl]methyl]acetamide]
MIC [1, 26]: 4 µg/mL (≈ 8.94 µM) | MIC [2, 27]: 8 µg/mL (≈ 17.9 µM) | MIC [3, 28]: 4 µg/mL (≈ 8.94 µM) | MIC [4, 29]: 4 µg/mL (≈ 8.94 µM) | MIC [5, 30]: 8 µg/mL (≈ 17.9 µM) | MIC [6, 31]: 8 µg/mL (≈ 17.9 µM) | MIC [7, 32]: 8 µg/mL (≈ 17.9 µM) | MIC [8, 33]: 4 µg/mL (≈ 8.94 µM) | MIC [9, 34]: 8 µg/mL (≈ 17.9 µM) | MIC [10, 35]: 8 µg/mL (≈ 17.9 µM) | MIC [11, 36]: 4 µg/mL (≈ 8.94 µM) | MIC [12, 37]: 4 µg/mL (≈ 8.94 µM) | MIC [13, 38]: 8 µg/mL (≈ 17.9 µM) | MIC [14, 39]: > 16 µg/mL | MIC [15, 40]: 4 µg/mL (≈ 8.94 µM) | MIC [16, 41]: 2 µg/mL (≈ 4.47 µM) | MIC [17, 42]: > 16 µg/mL | MIC [18, 43]: 4 µg/mL (≈ 8.94 µM) | MIC [20, 44]: 4 µg/mL (≈ 8.94 µM) | MIC [21, 45]: 8 µg/mL (≈ 17.9 µM) | MIC [22, 46]: 8 µg/mL (≈ 17.9 µM) | MIC [23, 47]: 16 µg/mL (≈ 35.8 µM) | MIC [24, 48]: 8 µg/mL (≈ 17.9 µM) | MIC [25, 49]: > 16 µg/mL

CN[C@H](CC(C)C)C(=O)N[C@H]1C(=O)N[C@@H](CC(N)=O)C(=O)N[C@H]2C(=O)N[C@H]3C(=O)N[C@H](C(=O)N[C@H](C(=O)O)c4cc(O)cc(O)c4-c4cc3ccc4O)[C@H](O)c3ccc(c(Cl)c3)Oc3cc2cc(c3O[C@@H]2O[C@H](CO)[C@@H](O)[C@H](O)[C@H]2O[C@H]2C[C@](C)(N)[C@H](O)[C@H](C)O2)Oc2ccc(cc2Cl)[C@H]1O [Vancomycin, reference compound]
MIC [1]: 0.25 µg/mL (≈ 0.173 µM) | MIC ([2]; VRE): > 16 µg/mL | MIC [3]; 1256: 0.5 µg/mL (≈ 0.345 µM) | MIC [4]; 20361: 0.5 µg/mL (≈ 0.345 µM) | MIC ([5]; 1294.): 0.5 µg/mL (≈ 0.345 µM) | MIC ([6]; AB4): 0.25 µg/mL (≈ 0.173 µM) | MIC ([7]; MRSA): 0.5 µg/mL (≈ 0.345 µM) | MIC [8]: 0.25 µg/mL (≈ 0.173 µM) | MIC [9]: 0.5 µg/mL (≈ 0.345 µM) | MIC [10]; 21777: 2 µg/mL (≈ 1.38 µM) | MIC [11]: 0.25 µg/mL (≈ 0.173 µM) | MIC [12]; 19615: 0.5 µg/mL (≈ 0.345 µM) | MIC [13]: 0.25 µg/mL (≈ 0.173 µM) | MIC [14]; 49131: > 16 µg/mL | MIC ([15]; MRSE): 2 µg/mL (≈ 1.38 µM) | MIC [16]; 1275: 0.5 µg/mL (≈ 0.345 µM) | MIC ([17]; Moraxella, CATA.M2): > 8 µg/mL | MIC [18]: 1 µg/mL (≈ 0.69 µM) | MIC [20]: 0.25 µg/mL (≈ 0.173 µM) | MIC [21]: 0.5 µg/mL (≈ 0.345 µM) | MIC [22]; 29212: 4 µg/mL (≈ 2.76 µM) | MIC [23]: 1 µg/mL (≈ 0.69 µM) | MIC ([24]; MRSA): 0.5 µg/mL (≈ 0.345 µM) | MIC [25]: > 16 µg/mL
